Results as given in US10870647B2, “Imidazopyridine derivative, method for preparing same, and pharmaceutical composition containing same as active ingredient for preventing or treating cancer” (DAEGU-GYEONGBUK MEDICAL INNOVATION FOUNDATION, priority 2016, dated 2020).

Tests used:
Assay in all cases: Kinase selectivity, scanMAX Kinase assay panel (DiscoverX), % control at 1 uM
Format in all cases: binding
[1] = target: T1, scanMAX Kinase assay panel (Homo sapiens, UniProt P24723); conditions: PRKCH; 1 uM; read-out: Percent Control (%)
T1 construct: purchased DiscoverX
T1 sequence (P24723 whole entry): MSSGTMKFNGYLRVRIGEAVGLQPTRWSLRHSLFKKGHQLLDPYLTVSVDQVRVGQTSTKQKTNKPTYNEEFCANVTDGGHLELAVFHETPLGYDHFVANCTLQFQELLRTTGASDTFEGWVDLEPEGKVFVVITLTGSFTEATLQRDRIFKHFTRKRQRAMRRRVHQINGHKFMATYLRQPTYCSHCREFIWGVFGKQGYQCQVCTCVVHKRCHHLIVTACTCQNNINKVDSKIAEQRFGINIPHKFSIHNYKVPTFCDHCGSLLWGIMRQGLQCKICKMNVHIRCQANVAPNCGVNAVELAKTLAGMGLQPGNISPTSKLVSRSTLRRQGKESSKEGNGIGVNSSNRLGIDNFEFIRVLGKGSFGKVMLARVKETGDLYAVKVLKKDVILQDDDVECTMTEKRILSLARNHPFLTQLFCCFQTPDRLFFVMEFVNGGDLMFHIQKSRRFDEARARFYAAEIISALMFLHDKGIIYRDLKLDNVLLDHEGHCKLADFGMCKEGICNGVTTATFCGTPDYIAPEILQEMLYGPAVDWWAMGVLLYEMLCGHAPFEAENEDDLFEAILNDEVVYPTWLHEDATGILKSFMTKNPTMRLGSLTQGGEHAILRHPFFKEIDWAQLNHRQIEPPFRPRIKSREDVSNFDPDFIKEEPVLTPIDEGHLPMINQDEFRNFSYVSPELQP
Procedure, shortened: (§1)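 Compounds were tested at 1 uM in DMSO against each enzyme in the panel. Percent control was calculated as (compound − positive control)/(negative control − positive control) × 100, and a compound was scored active on a kinase when this value fell below 35.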

[2] = target: T2, scanMAX Kinase assay panel (Homo sapiens, UniProt Q9UBE8); conditions: NLK; 1 uM; read-out: Percent Control (%)
T2 construct: purchased DiscoverX
T2 sequence (Q9UBE8 1-527): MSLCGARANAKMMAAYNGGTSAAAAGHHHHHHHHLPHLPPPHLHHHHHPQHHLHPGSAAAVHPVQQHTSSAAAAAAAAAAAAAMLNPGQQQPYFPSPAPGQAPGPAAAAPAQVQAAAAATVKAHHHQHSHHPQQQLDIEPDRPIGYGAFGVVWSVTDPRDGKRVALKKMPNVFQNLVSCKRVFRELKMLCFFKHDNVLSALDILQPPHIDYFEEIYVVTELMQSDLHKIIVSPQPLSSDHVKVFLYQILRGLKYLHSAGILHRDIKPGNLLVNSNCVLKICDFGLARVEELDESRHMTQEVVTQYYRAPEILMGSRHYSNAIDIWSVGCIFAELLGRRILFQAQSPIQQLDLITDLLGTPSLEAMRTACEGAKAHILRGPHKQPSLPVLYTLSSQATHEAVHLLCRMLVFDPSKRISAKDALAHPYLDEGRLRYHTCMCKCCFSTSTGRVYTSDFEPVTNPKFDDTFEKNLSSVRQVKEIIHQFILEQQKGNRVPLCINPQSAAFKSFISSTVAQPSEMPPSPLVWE
Procedure, shortened: as §1

[3] = target: T3, scanMAX Kinase assay panel (Homo sapiens, UniProt Q86YV6); conditions: MYLK4; 1 uM; read-out: Percent Control (%)
T3 construct: purchased DiscoverX
T3 sequence (Q86YV6 1-388): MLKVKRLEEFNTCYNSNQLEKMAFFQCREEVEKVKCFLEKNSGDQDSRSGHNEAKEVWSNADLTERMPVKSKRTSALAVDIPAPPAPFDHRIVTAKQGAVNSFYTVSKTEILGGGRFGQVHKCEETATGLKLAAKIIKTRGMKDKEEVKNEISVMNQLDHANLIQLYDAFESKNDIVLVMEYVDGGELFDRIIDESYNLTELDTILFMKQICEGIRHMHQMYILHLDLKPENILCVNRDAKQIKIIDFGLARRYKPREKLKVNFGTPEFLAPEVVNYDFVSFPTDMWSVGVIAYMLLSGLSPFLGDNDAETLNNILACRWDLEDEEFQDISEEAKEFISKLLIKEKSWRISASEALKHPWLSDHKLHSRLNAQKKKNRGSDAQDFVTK
Procedure, shortened: as §1

[4] = target: T4, scanMAX Kinase assay panel (Homo sapiens, UniProt Q04771); conditions: ACVR1; 1 uM; read-out: Percent Control (%)
T4 construct: purchased DiscoverX
T4 sequence (Q04771 21-509): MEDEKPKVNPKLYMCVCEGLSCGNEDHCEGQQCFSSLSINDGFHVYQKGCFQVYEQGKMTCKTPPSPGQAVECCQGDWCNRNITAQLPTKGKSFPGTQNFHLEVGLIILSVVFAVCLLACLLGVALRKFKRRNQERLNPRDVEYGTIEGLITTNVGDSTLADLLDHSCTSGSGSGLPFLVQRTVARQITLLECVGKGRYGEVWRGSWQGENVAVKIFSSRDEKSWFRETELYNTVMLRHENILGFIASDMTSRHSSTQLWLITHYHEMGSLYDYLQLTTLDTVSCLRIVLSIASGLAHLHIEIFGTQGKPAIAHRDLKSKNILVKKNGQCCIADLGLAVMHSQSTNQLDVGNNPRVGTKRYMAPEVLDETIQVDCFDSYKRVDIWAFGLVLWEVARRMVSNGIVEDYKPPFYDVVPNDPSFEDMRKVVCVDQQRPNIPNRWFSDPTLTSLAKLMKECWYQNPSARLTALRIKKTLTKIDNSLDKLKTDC
Procedure, shortened: as §1

[5] = target: T5, scanMAX Kinase assay panel (Homo sapiens, UniProt Q02763); conditions: TIE2; 1 uM; read-out: Percent Control (%)
T5 construct: purchased DiscoverX
T5 sequence (Q02763 23-1124): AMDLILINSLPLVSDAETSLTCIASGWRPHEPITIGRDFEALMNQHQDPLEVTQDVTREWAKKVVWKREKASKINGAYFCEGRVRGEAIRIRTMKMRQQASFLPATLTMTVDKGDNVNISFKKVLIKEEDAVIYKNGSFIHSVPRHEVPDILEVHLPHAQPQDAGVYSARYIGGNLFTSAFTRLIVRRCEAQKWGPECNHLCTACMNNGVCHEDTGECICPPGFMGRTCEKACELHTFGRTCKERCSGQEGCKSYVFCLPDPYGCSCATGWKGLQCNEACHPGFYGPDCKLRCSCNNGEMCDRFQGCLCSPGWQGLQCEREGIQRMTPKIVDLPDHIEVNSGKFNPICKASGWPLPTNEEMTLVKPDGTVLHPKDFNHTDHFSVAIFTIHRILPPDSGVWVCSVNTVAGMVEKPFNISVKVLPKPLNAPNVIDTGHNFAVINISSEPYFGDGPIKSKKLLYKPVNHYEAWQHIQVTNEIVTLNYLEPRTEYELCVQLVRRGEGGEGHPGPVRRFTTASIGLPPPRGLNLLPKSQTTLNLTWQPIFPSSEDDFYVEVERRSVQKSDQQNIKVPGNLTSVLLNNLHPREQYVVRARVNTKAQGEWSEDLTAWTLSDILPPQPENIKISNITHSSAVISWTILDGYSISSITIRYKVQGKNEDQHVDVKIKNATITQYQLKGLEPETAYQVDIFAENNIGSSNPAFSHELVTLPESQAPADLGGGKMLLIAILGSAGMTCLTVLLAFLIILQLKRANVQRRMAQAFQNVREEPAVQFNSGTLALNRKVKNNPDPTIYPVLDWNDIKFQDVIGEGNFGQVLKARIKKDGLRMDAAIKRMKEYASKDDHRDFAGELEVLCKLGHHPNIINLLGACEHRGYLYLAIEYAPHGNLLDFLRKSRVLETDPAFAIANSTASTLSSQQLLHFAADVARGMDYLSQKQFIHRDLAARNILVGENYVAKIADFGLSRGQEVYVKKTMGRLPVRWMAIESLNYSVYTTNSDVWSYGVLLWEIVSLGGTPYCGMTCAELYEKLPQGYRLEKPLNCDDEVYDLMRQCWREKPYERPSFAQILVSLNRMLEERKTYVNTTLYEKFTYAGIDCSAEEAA
Procedure, shortened: as §1

[6] = target: T6, scanMAX Kinase assay panel (Homo sapiens, UniProt P29320); conditions: EPHA3; 1 uM; read-out: Percent Control (%)
T6 construct: purchased DiscoverX
T6 sequence (P29320 21-983): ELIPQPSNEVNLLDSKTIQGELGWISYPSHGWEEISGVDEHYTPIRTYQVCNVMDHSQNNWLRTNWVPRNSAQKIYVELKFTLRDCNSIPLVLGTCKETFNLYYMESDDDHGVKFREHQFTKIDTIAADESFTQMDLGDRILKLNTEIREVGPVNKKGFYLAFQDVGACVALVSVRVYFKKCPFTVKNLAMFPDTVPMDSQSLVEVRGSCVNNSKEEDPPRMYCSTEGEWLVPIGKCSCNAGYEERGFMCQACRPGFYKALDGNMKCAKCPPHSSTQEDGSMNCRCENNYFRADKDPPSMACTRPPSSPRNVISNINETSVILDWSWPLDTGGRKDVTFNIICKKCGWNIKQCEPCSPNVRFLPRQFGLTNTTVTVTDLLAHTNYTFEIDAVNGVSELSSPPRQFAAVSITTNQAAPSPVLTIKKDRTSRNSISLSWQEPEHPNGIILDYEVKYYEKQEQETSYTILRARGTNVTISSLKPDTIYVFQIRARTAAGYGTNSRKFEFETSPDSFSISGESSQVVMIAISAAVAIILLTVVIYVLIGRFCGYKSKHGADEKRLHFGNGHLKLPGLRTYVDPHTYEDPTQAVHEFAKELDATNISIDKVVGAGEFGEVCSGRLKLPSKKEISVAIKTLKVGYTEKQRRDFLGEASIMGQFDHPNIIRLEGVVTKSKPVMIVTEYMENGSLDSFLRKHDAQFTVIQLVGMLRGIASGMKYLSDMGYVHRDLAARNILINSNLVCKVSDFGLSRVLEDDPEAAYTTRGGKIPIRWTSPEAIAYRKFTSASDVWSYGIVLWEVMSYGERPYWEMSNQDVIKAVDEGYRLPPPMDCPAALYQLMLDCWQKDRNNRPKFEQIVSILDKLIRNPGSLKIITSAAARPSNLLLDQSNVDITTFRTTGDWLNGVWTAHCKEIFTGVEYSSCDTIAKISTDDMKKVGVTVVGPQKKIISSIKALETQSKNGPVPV
Procedure, shortened: as §1

Q: Which results are given for `Cc1ccc(NC(=O)C2(C(=O)Nc3ccc(F)cc3)CC2)cc1C#Cc1cnc2c(Nc3cnn(C(C)C)c3)cccn12` [Example 78]?
A: remaining binding at 1 µM [1]: 100%; remaining binding at 1 µM [2]: 50%; remaining binding at 1 µM [3]: 100%; remaining binding at 1 µM [4]: 100%; remaining binding at 1 µM [5]: 16%; remaining binding at 1 µM [6]: 76%

Q: What does the source list for `Cc1cn(-c2cc(NC(=O)c3ccc(C)c(C#Cc4cnc5c(Nc6cnn(C)c6)cccn45)c3)cc(C(F)(F)F)c2)cn1` [Example 12, 4-methyl-N-(3-(4-methyl-1H-imidazol-1-yl)-5-(trifluoromethyl)phenyl)-3-((8-((1-methyl-1H-pyrazol-4-yl)amino)imidazo[1,2-a]pyridin-3-yl)ethynyl)benzamide]?
A: remaining binding at 1 µM [1]: 100%; remaining binding at 1 µM [2]: 15%; remaining binding at 1 µM [3]: 92%; remaining binding at 1 µM [4]: 100%; remaining binding at 1 µM [5]: 0%; remaining binding at 1 µM [6]: 27%

Q: For `Cc1ccc(C(=O)Nc2ccc(CN3CCN(C)CC3)c(C(F)(F)F)c2)cc1C#Cc1cnc2c(Nc3cnn(C)c3)cccn12` [Example 1, 4-methyl-3-((8-((1-methyl-1H-pyrazol-4-yl)amino)imidazo[1,2-a]pyridin-3-yl)ethynyl)-N-(4-((4-methylpiperazin-1-yl)methyl)-3-(trifluoromethyl)phenyl)benzamide], which remaining binding at 1 µM [1] is on record?
A: Its remaining binding at 1 µM is 100%.

Q: What about the remaining binding at 1 µM [2] of the same molecule?
A: The remaining binding at 1 µM was 24%.

Q: And the remaining binding at 1 µM [3]?
A: The remaining binding at 1 µM was 86%.

Q: And the remaining binding at 1 µM [4]?
A: Its remaining binding at 1 µM is 100%.

Q: And the remaining binding at 1 µM [5]?
A: Its remaining binding at 1 µM is 0%.

Q: And the remaining binding at 1 µM [6]?
A: The remaining binding at 1 µM was 19%.
